Test results as given in patent US5120851A, “Preparation process for making water-soluble lysine salts of (+)2-(4-fluorophenyl)-alpha-methyl-5-benzoxazole acetic acid” (Euroresearch S.r.l., priority 1988, dated 1992).
Structures can show the parent of a compound that is named as a salt.

How the values were obtained:
[1] = water-solubility at 20° C.; format: physicochemical
[2] = LD50 by the Litchfield-Wilcoxon method on mice, progressive oral doses; conditions: mouse, in vivo
Protocol: (§1) The LD50 was determined by the Litchfield-Wilcoxon method on mice using progressive oral doses. […] The paw volume is checked 2, 4 and 6 hours after inoculating the carrageen.

[3] = tested on: experimental edema induced by carrageen in a rat's paw; experiment: experimental edema induced by carrageen in a rat's paw; format: in vivo, rat (Sprague Dawley--Charles River); conditions: for TI (therapeutic index) LD50 /ED50: LD50 mice oral / ED50 rat paw edema; for ED50: Rattus norvegicus, rat paw carrageen edema, dosed 60 minutes before carrageen, paw volume at 2, 4 and 6 hours
Protocol: as §1

[4] = cited from earlier work
[5] = prior art statement; cited from earlier work

C[C@H](C(=O)O)c1ccc2oc(-c3ccc(F)cc3)nc2c1 (racemic) [Example 1, salt of (+)2-(4-fluorophenyl)-alpha-methyl-5-benzoxazole acetic acid with DL-lysine]
solubility ([1]; water): 1000 mg/mL | LD50 ([2]; expressed as flunoxaprofen): 720 mg/kg | TI (therapeutic index) LD50 /ED50 ([3]; listed as Salt of flunoxaprofen with DL-lysine): 129.96 | ED50 ([3]; expressed as flunoxaprofen): 5.54 mg/kg

O=C(O)Cc1ccccc1Nc1c(Cl)cccc1Cl [Diclofenac]
ED50 [3]: 10 mg/kg

C[C@H](C(=O)O)c1ccc2oc(-c3ccc(F)cc3)nc2c1 [Example 2]
water-solubility (in words) ([1]; compared with Example 1): as in Example 1

C[C@H](C(=O)O)c1ccc2oc(-c3ccc(F)cc3)nc2c1 [Flunoxaprofen, (+)2-(4-fluorophenyl)-alpha-methyl-5-benzoxazole acetic acid]
activity of the dextrorotatory form ([4]; Italian patent No. 1,080,779): particularly active | anti-inflammatory, analgesic and antipyretic activity ([4]; J. Medic. Chem. 1975, vol 18, No. 1, pp 53-58): considerable anti-inflammatory, analgesic and antipyretic activity | LD50 [2]: 724 mg/kg | TI (therapeutic index) LD50 /ED50 [3]: 121.18 | ED50 [3]: 5.97 mg/kg | water-solubility [5]: very limited
